Reference: patent US20230159453A1 (COCRYSTAL PHARMA, INC., priority 2020, published 2023)

molecular target: SARS2 protease (Severe acute respiratory syndrome coronavirus 2, UniProt P0DTD1); assay: SARS-CoV-2 protease inhibition assay (SARS2 FRET protease assay); format: biochemical; conditions: SARS-CoV-2 protease 25 nM, FRET, peptide substrate 1.3 μM, 30 minutes at 30° C., compounds 20 μM to 1.0 nM; read-out: IC50

Question: For O=C[C@H](C[C@@H]1CCNC1=O)NC(=O)[C@H](CC1CCCCC1)NC(=O)OC(Cc1cccc(Cl)c1)c1cccc(Cl)c1 (stereo partly drawn) [Compound C272, 1,2-Bis(3-chlorophenyl)ethyl ((S)-3-cyclohexyl-1-oxo-1-(((S)-1-oxo-3-((S)-2-oxopyrrolidin-3-yl)propan-2-yl)amino)propan-2-yl)carbamate], which IC50 is on record?
Answer: 0.32 µM

Question: How did the IC50 turn out when CCOP(=O)(OCC)C(O)[C@H](CC(C)C(=O)N1CCOc2ccccc2C1)NC(=O)[C@H](CC1CCCCC1)NC(=O)OCc1cccc(Cl)c1 (stereo partly drawn) [Compound C11, 3-chlorobenzyl ((2S)-3-cyclohexyl-1-(((2S)-1-(diethoxyphosphoryl)-5-(2,3-dihydrobenzo[f][1,4]oxazepin-4(5H)-yl)-1-hydroxy-4-methyl-5-oxopentan-2-yl)amino)-1-oxopropan-2-yl)carbamate] was run?
Answer: > 200 µM

Question: With CCOC(=O)/C=C/[C@H](C[C@@H]1CCNC1=O)NC(=O)[C@H](CC(C)C)NC(=O)OC(Cc1ccccc1)c1ccccc1 (stereo partly drawn) [Compound C232, Ethyl (4S, E)-4-((2S)-2-(((1,2-diphenylethoxy)carbonyl)amino)-4-methylpentanamido)-5-((S)-2-oxopyrrolidin-3-yl) pent-2-enoate] as the compound, how does the IC50 read?
Answer: 15.1 µM

Question: For CC(C)C[C@H](NC(=O)OC(c1ccccc1)C(C)(C)c1cccc(Cl)c1)C(=O)N[C@@H](C[C@@H]1CCNC1=O)C(=O)C(=O)NCCN(C)C (stereo partly drawn) [Compound C260], which IC50 is on record?
Answer: 1.14 µM

Question: How did the IC50 turn out when CCOP(=O)(OCC)C(O)C(CC1CC2(CCCCC2)NC1=O)NC(=O)C(CC(C)C)NC(=O)OCc1cccc(Cl)c1 (stereo in doubt) [Compound C85, 3-Chlorobenzyl ((2R)-1-((1-(diethoxyphosphoryl)-1-hydroxy-3-(2-oxo-1-azaspiro[4.5]decan-3-yl)propan-2-yl)amino)-4-methyl-1-oxopentan-2-yl)carbamate] was run?
Answer: 17.8 µM

Question: With CC(C)C[C@H](NC(=O)OC(c1ccccc1)C(C)(C)c1cccc(Cl)c1)C(=O)N[C@@H](C[C@@H]1CCNC1=O)C(=O)C(=O)NC1CC1 (stereo partly drawn) [Compound C166, 2-(3-Chlorophenyl)-2-methyl-1-phenylpropyl ((S)-1-(((S)-4-(cyclopropylamino)-3,4-dioxo-1-((S)-2-oxopyrrolidin-3-yl)butan-2-yl)amino)-4-methyl-1-oxopentan-2-yl)carbamate] as the compound, how does the IC50 read?
Answer: 0.014 µM

Question: How did the IC50 turn out when CC(C)(c1cccc(Cl)c1)C(OC(=O)N[C@@H](CC1CCCCC1)C(=O)N[C@@H](C[C@@H]1CCNC1=O)C(=O)C(=O)NC1CC1)c1ccccc1 (stereo partly drawn) [Compound C148, 2-(3-Chlorophenyl)-2-methyl-1-phenylpropyl ((S)-3-cyclohexyl-1-(((S)-4-(cyclopropylamino)-3,4-dioxo-1-((S)-2-oxopyrrolidin-3-yl)butan-2-yl)amino)-1-oxopropan-2-yl)carbamate] was run?
Answer: 0.973 µM

Question: With CCCCCCCOC(=O)N[C@@H](CC1CCCCC1)C(=O)N[C@@H](CCC(=O)N1CCOc2ccccc2C1)C(O)P(=O)(OCC)OCC (stereo partly drawn) [Compound C14, Heptyl ((2S)-3-cyclohexyl-1-(((2S)-1-(diethoxyphosphoryl)-5-(2,3-dihydrobenzo[f][1,4]oxazepin-4(5H)-yl)-1-hydroxy-5-oxopentan-2-yl)amino)-1-oxopropan-2-yl)carbamate] as the compound, how does the IC50 read?
Answer: > 200 µM

Question: With CC(C)C[C@H](NC(=O)OC(c1ccccc1)C(C)(C)c1cccc(Cl)c1)C(=O)N[C@@H](C[C@@H]1CCNC1=O)C(=O)C(=O)N1CCN(C(=O)OC(C)(C)C)CC1 (stereo partly drawn) [Compound C261] as the compound, how does the IC50 read?
Answer: 17 µM

Question: CCOP(=O)(OCC)C(O)[C@H](CC1CCN(CCc2ccccc2)C1=O)NC(=O)[C@H](CC1CCCCC1)NC(=O)OCc1cccc(Cl)c1 (stereo partly drawn) [Compound C8, 3-Chlorobenzyl ((2S)-3-cyclohexyl-1-((1-(diethoxyphosphaneyl)-1-hydroxy-3-(2-oxo-1-phenethylpyrrolidin-3-yl)propan-2-yl)amino)-1-oxopropan-2-yl) carbamate] was tested. Which IC50 did it give?
Answer: > 200 µM

Question: How did the IC50 turn out when CC(C)C[C@H](NC(=O)OC1(Cc2cccc(Cl)c2)CCC1)C(=O)NC(C=O)CC1CC2(CCOCC2)NC1=O (stereo partly drawn) [Compound C204] was run?
Answer: 0.224 µM

Question: Which IC50 does the source give for CC(C)C[C@H](NC(=O)OC(c1cccc(Cl)c1)C(C)(C)c1cccc(Cl)c1)C(=O)N[C@@H](C[C@@H]1CCNC1=O)C(=O)C(=O)NC1CC1 (stereo partly drawn) [Compound C286] here?
Answer: 0.07 µM

Question: CC(=O)N1CCC2(CC1)C[C@H](C[C@H](NC(=O)[C@H](CC1CCCCC1)NC(=O)c1cc3ccccc3[nH]1)C(=O)C(N)=O)C(=O)N2 [Compound C125, N—((S)-1-(((S)-1-((S)-8-acetyl-2-oxo-1,8-diazaspiro[4.5]decan-3-yl)-4-amino-3,4-dioxobutan-2-yl)amino)-3-cyclohexyl-1-oxopropan-2-yl)-1H-indole-2-carboxamide] was tested. Which IC50 did it give?
Answer: 0.0201 µM

Question: O=C(N[C@@H](CC1CCCCC1)C(=O)NC(CC1CC2(CCC2)NC1=O)C(=O)C(=O)NC1CC1)OCc1cccc(Cl)c1 (stereo partly drawn) [Compound C290, 3-Chlorobenzyl ((2S)-3-cyclohexyl-1-((4-(cyclopropylamino)-3,4-dioxo-1-(6-oxo-5-azaspiro[3.4]octan-7-yl)butan-2-yl)amino)-1-oxopropan-2-yl)carbamate] was tested. Which IC50 did it give?
Answer: 0.508 µM

Question: With CC(C)C[C@H](NC(=O)OC(Cc1cccc(Cl)c1)c1ccccc1)C(=O)N[C@@H](C[C@@H]1CCNC1=O)C(=O)C(=O)N1CCCCC1 (stereo partly drawn) [Compound C243, 2-(3-Chlorophenyl)-1-phenylethyl ((S)-1-(((S)-3,4-dioxo-1-((S)-2-oxopyrrolidin-3-yl)-4-(piperidin-1-yl)butan-2-yl)amino)-4-methyl-1-oxopentan-2-yl) carbamate] as the compound, how does the IC50 read?
Answer: > 20 µM

Question: How did the IC50 turn out when CC(C)(c1cccc(Cl)c1)C(OC(=O)N[C@@H](CC1CCCCC1)C(=O)N[C@@H](C[C@@H]1CCNC1=O)C(=O)C(N)=O)c1cccc(F)c1 (stereo partly drawn) [Compound C120, 2-(3-Chlorophenyl)-1-(3-fluorophenyl)-2-methylpropyl ((S)-1-(((S)-4-amino-3,4-dioxo-1-((S)-2-oxopyrrolidin-3-yl)butan-2-yl)amino)-3-cyclohexyl-1-oxopropan-2-yl) carbamate] was run?
Answer: 1.06 µM

Question: With CC(C)(c1cccc(Cl)c1)C(OC(=O)N[C@@H](CC1CCCCC1)C(=O)N[C@@H](C[C@@H]1CCNC1=O)C(=O)C(N)=O)c1ccc(F)cc1 (stereo partly drawn) [Compound C135, 2-(3-Chlorophenyl)-1-(4-fluorophenyl)-2-methylpropyl ((S)-1-(((S)-4-amino-3,4-dioxo-1-((S)-2-oxopyrrolidin-3-yl)butan-2-yl)amino)-3-cyclohexyl-1-oxopropan-2-yl) carbamate] as the compound, how does the IC50 read?
Answer: 1.89 µM

Question: How did the IC50 turn out when CCNC(=O)C(=O)[C@H](C[C@@H]1CCNC1=O)NC(=O)[C@H](CC1CCCCC1)NC(=O)OC(c1ccccc1)C(C)(C)c1cccc(Cl)c1 (stereo partly drawn) [Compound C211, 2-(3-Chlorophenyl)-2-methyl-1-phenylpropyl ((S)-3-cyclohexyl-1-(((S)-4-(ethylamino)-3,4-dioxo-1-((S)-2-oxopyrrolidin-3-yl)butan-2-yl)amino)-1-oxopropan-2-yl) carbamate] was run?
Answer: 0.339 µM

Question: CC(C)C[C@H](NC(=O)OC1(Cc2ccccc2)CCC1)C(=O)N[C@@H](C[C@@H]1CCNC1=O)C(=O)C(N)=O [Compound C73, 1-Benzylcyclobutyl ((S)-1-(((S)-4-amino-3,4-dioxo-1-((S)-2-oxopyrrolidin-3-yl)butan-2-yl)amino)-4-methyl-1-oxopentan-2-yl)carbamate] was tested. Which IC50 did it give?
Answer: 0.6 µM

Question: How did the IC50 turn out when CC(C)(c1cccc(Cl)c1)[C@H](OC(=O)N[C@@H](CC1CCCCC1)C(=O)N[C@@H](C[C@@H]1CCNC1=O)C(=O)C(N)=O)c1cccc(F)c1 [Compound C183] was run?
Answer: 0.249 µM

Question: O=C[C@H](C[C@@H]1CCNC1=O)NC(=O)[C@H](CC1CCCCC1)NC(=O)OC(Cc1cccc(Cl)c1)c1ccccc1 (stereo partly drawn) [Compound C109, 2-(3-Chlorophenyl)-1-phenylethyl ((S)-3-cyclohexyl-1-oxo-1-(((S)-1-oxo-3-((S)-2-oxopyrrolidin-3-yl)propan-2-yl)amino)propan-2-yl)carbamate] was tested. Which IC50 did it give?
Answer: 0.002 µM

Question: How did the IC50 turn out when CC(=O)N1CCC2(CC1)CC(CC(NC(=O)[C@@H](CC1CCCCC1)NC(=O)c1cc3ccccc3[nH]1)C(=O)C(N)=O)C(=O)N2 (stereo partly drawn) [Compound C112, N-((2R)-1-((1-(8-acetyl-2-oxo-1,8-diazaspiro[4.5]decan-3-yl)-4-amino-3,4-dioxobutan-2-yl)amino)-3-cyclohexyl-1-oxopropan-2-yl)-1H-indole-2-carboxamide] was run?
Answer: 0.185 µM

Question: For CC(C)C[C@H](NC(=O)OC(Cc1ccccc1)C(C)C)C(=O)N[C@H](C=O)C[C@@H]1CCNC1=O (stereo partly drawn) [Compound C230, 3-Methyl-1-phenylbutan-2-yl ((S)-4-methyl-1-oxo-1-(((S)-1-oxo-3-((S)-2-oxopyrrolidin-3-yl)propan-2-yl)amino)pentan-2-yl)carbamate], which IC50 is on record?
Answer: 0.07 µM

Question: CC1(C)CC(CC(NC(=O)[C@H](CC2CCCCC2)NC(=O)OC(c2cccc(Cl)c2)C(C)(C)c2cccc(Cl)c2)C(=O)C(N)=O)C(=O)N1 (stereo partly drawn) [Compound C288] was tested. Which IC50 did it give?
Answer: 2.23 µM

Question: For CCOP(=O)(OCC)C(O)[C@H](CCC(=O)N1CCOc2ccc(Cl)cc2C1)NC(=O)[C@H](CC1CCCCC1)NC(=O)OCc1cccc(Cl)c1 (stereo partly drawn) [Compound C9, 3-Chlorobenzyl ((2S)-1-(((2S)-5-(7-chloro-2,3-dihydrobenzo[f][1,4]oxazepin-4(5H)-yl)-1-(diethoxyphosphoryl)-1-hydroxy-5-oxopentan-2-yl)amino)-3-cyclohexyl-1-oxopropan-2-yl)carbamate], which IC50 is on record?
Answer: > 200 µM

Question: With O=C(N[C@@H](CC1CCCCC1)C(=O)N[C@@H](CC1CC2(CCCCC2)NC1=O)C(=O)CO)OCc1cccc(Cl)c1 (stereo partly drawn) [Compound C168, 3-Chlorobenzyl ((2S)-3-cyclohexyl-1-(((2S)-4-hydroxy-3-oxo-1-(2-oxo-1-azaspiro[4.5]decan-3-yl)butan-2-yl)amino)-1-oxopropan-2-yl)carbamate] as the compound, how does the IC50 read?
Answer: 5.44 µM

Question: For CC(=O)N1CCC2(CC1)CC(CC(C=O)NC(=O)[C@H](CC(C)C)NC(=O)OCC1CCC(F)(F)CC1)C(=O)N2 (stereo partly drawn) [Compound C64, (4,4-Difluorocyclohexyl)methyl ((2S)-1-((1-(8-acetyl-2-oxo-1,8-diazaspiro[4.5]decan-3-yl)-3-oxopropan-2-yl)amino)-4-methyl-1-oxopentan-2-yl)carbamate], which IC50 is on record?
Answer: 0.1 µM
